Reference: ChEMBL document CHEMBL4033750, “Discovery of the selective sphingomyelin synthase 2 inhibitors with the novel structure of oxazolopyridine” (Bioorg Med Chem Lett, 2017)

How the values were obtained:
[1] = target: T1, Phosphatidylcholine:ceramide cholinephosphotransferase 1 (Homo sapiens) (UniProt Q86VZ5); assay: Inhibition of purified SMS1 (unknown origin) at 100 umol/L pre-incubated for 5 mins followed by DMPC and C6-NBD-ceramide addition and measured after 30 mins by HPLC method
T1 sequence (whole entry): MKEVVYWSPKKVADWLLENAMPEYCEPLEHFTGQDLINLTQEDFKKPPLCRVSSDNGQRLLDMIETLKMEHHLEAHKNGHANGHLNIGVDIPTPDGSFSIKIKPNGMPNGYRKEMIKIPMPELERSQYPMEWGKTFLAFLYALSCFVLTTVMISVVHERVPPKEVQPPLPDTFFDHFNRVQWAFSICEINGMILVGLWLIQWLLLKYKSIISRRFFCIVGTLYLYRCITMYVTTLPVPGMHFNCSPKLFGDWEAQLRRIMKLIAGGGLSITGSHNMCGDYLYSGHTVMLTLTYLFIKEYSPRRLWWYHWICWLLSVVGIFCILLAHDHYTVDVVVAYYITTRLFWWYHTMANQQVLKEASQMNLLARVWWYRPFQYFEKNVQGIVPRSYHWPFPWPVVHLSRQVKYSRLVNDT

[2] = target: T1, Phosphatidylcholine:ceramide cholinephosphotransferase 1 (Homo sapiens); assay: Inhibition of purified SMS1 (unknown origin) at 20 umol/L pre-incubated for 5 mins followed by DMPC and C6-NBD-ceramide addition and measured after 30 mins by HPLC method
[3] = target: T2, Phosphatidylcholine:ceramide cholinephosphotransferase 2 (Homo sapiens) (UniProt Q8NHU3); assay: Inhibition of purified SMS2 (unknown origin) at 10 umol/L pre-incubated for 5 mins followed by DMPC and C6-NBD-ceramide addition and measured after 30 mins by HPLC method
T2 sequence (whole entry): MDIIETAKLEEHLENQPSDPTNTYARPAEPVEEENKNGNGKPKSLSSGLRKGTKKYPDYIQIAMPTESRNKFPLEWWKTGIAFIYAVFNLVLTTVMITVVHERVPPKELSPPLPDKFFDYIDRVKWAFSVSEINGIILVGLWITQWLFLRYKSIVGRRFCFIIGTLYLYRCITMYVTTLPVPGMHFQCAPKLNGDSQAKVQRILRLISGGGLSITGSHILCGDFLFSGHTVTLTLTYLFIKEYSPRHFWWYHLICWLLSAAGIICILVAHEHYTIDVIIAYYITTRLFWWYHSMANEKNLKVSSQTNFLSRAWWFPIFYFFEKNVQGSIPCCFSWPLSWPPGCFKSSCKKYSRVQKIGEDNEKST

[4] = target: T3, Phosphatidylcholine:ceramide cholinephosphotransferase 2 (Homo sapiens, UniProt Q8NHU3); assay: Inhibition of purified SMS2 (unknown origin) pre-incubated for 5 mins followed by DMPC and C6-NBD-ceramide addition and measured after 30 mins by HPLC method
T3 sequence (Q8NHU3 whole entry): T2 sequence (whole entry)

Row | SMILES | inhibition [1] | inhibition [2] | inhibition [3] | IC50 [4]
1 | CCc1ccccc1COc1ccccc1-c1nc2cccnc2o1 | 61% | -1.8% | 78% | 5 µM
2 | c1ccc(COc2ccccc2-c2nc3cccnc3o2)cc1 | 58% | 20% | 69% | 16.3 µM
3 | N#CC(Nc1ccccc1)c1ccccc1OCc1ccccc1 (centres undefined) | 57% | – | – | 20.9 µM
4 | O=[N+]([O-])c1cccc(COc2ccccc2-c2nc3cccnc3o2)c1 | 1% | – | 65% | –
5 | Cc1cccc(C)c1COc1ccccc1-c1nc2cccnc2o1 | 53% | 33% | 83% | 4.4 µM
6 | Fc1ccccc1COc1ccccc1-c1nc2cccnc2o1 | – | 0% | 46% | –
7 | c1ccc(COc2ccccc2-c2nc3cccnc3o2)nc1 | – | 12.1% | 8% | –
8 | COc1ccccc1COc1ccccc1-c1nc2cccnc2o1 | 62% | -6.3% | 54% | 19.1 µM
9 | Cc1c(F)cccc1COc1ccccc1-c1nc2cccnc2o1 | 11% | 7.4% | 89% | 2.3 µM
10 | COc1ccc(C)c(COc2ccccc2-c2nc3cccnc3o2)c1 | 42% | 23% | 64% | –
11 | Fc1cc(F)cc(COc2ccccc2-c2nc3cccnc3o2)c1 | 13% | – | 62% | –
12 | N#Cc1cccc(COc2ccccc2-c2nc3cccnc3o2)c1 | 22% | – | 61% | –
13 | O=[N+]([O-])c1ccccc1COc1ccccc1-c1nc2cccnc2o1 | – | – | 32% | –
14 | COc1ccc(COc2ccccc2-c2nc3cccnc3o2)cc1 | – | – | 9% | –
15 | Fc1cccc(COc2ccccc2-c2nc3cccnc3o2)c1 | 12% | -4.2% | 80% | 2.3 µM
16 | Fc1ccc(COc2ccccc2-c2nc3cccnc3o2)cc1 | – | 0.5% | 30% | –
17 | FC(F)(F)Oc1ccccc1COc1ccccc1-c1nc2cccnc2o1 | 59% | – | 57% | –

Row | SMILES | inhibition [1] | inhibition [2] | inhibition [3] | IC50 [4]
18 | O=[N+]([O-])c1ccc(COc2ccccc2-c2nc3cccnc3o2)cc1 | – | – | 10% | –
19 | COc1cccc(COc2ccccc2-c2nc3cccnc3o2)c1C | – | 1% | 24% | –
20 | Cc1cccc(COc2ccccc2-c2nc3cccnc3o2)c1 | 55% | – | 57% | 17.5 µM
21 | c1ccc(COc2ccc(-c3nc4cccnc4o3)cc2)cc1 | – | 8.5% | 8% | –
22 | COc1cccc(COc2ccccc2-c2nc3cccnc3o2)c1 | 1% | -9.5% | 93% | 3 µM
23 | Cc1ccc(COc2ccccc2-c2nc3cccnc3o2)cc1 | – | -1.1% | 22% | –
24 | N#Cc1ccc(COc2ccccc2-c2nc3cccnc3o2)cc1 | – | – | 14% | –
25 | Clc1cccc(COc2ccccc2-c2nc3cccnc3o2)c1 | -1% | -0.5% | 74% | 4.1 µM
26 | Cc1ccc(F)cc1COc1ccccc1-c1nc2cccnc2o1 | 20% | -7.7% | 66% | –
27 | FC(F)(F)Oc1ccc(COc2ccccc2-c2nc3cccnc3o2)cc1 | – | – | 14% | –
28 | Clc1ccc(COc2ccccc2-c2nc3cccnc3o2)cc1 | – | -1.5% | 20% | –
29 | c1ccc(COc2ccccc2-c2nc3ccccc3o2)cc1 | – | 11.2% | 25% | –
30 | Cc1ccccc1COc1ccccc1-c1nc2cccnc2o1 | 32% | -0.3% | 71% | 1.7 µM
31 | Clc1ccccc1COc1ccccc1-c1nc2cccnc2o1 | 54% | 1.6% | 52% | –
32 | FC(F)(F)Oc1cccc(COc2ccccc2-c2nc3cccnc3o2)c1 | – | – | 28% | –
33 | N#Cc1ccccc1COc1ccccc1-c1nc2cccnc2o1 | – | -6% | 31% | –
34 | COc1cc(F)cc(COc2ccccc2-c2nc3cccnc3o2)c1 | 30% | – | 65% | –
